Consider one compound from publication PMC10305181, “A VEGFB-Based Peptidomimetic Inhibits VEGFR2-Mediated PI3K/Akt/mTOR and PLCγ/ERK Signaling and Elicits Apoptotic, Antiangiogenic, and Antitumor Activities” (Pharmaceuticals, 2023).

Bridge positions count the residues as written; N and C are the ends. Peptide text beside a SMILES is read from it.

Data set [1] is described as follows: body weight / tolerability of treated 4T1 tumor-bearing mice. In kind it is in vivo. Particulars: 0.2 mg·kg^−1 i.v. once every 2 days. The procedure: Figure 2 Loop formation is important for the antitumor activity of VGB3. (A) To investigate the efficacy of VGB3 peptides in vivo 13 days after transplantation of a 4T1 murine MCT into female BALB/c mice (the tumor volume ~150 mm^3), the treatment groups received 0.2 mg·kg^−1 (once every 2 days, i.v.) of either the C-VGB3 or L-VGB3 and the control group received PBS for 20 days. Error bars denote ± SEM. n = 6; **** p < 0.0001, ns = not significant; two-way ANOVA. (B) Investigation of C-VGB3 and L-VGB3 effects on mice weight. […] (C,D) Immunohistochemical (IHC) analyses of CD31 and Ki67 for the C-VGB3-, L-VGB3- and PBS-treated tumors. For IHC staining, the sections of tumor tissues were incubated with the primary mouse monoclonal antibodies for CD31 (1:2000 (v/v)) and Ki67 (5 µg·mL^−1). […] Photographs were taken at 40× magnification. Error bars denote ± SEM. n = 3; * 0.02 ≤ p ≤ 0.04, ns = not significant; one-way ANOVA.
The antitumor efficacy of the peptides was investigated as described previously. Thirteen days after implanting, tumor (~150 mm^3)-bearing mice were grouped randomly into control and treated animals (6/group). From day 13 to day 33, the treatment group received cyclic or linear VGB3 (0.2 mg·kg^−1), whereas the control group received an equal volume of PBS (i.v., once every two days). The volume of tumors was calculated as 0.52 × length × width^2. In addition, changes in the weight of animals were recorded every 2 days.

A further data set concerns HUVECs. The data set is described as follows: Annexin V/PI flow cytometry, HUVECs. Particulars: 0.40 μM, 24 h, VEGF 20 ng·mL^−1; control 9.61; n = 3; p < 0.0001; in % (unit assumed). In kind it is cell-based, human. The procedure: An important consequence of VEGF signals is cell survival dominantly via PI3K/AKT/mTOR pathway. Thus, inhibition of VEGF signals leads to the induction of apoptosis. Accordingly, the ability of C-VGB3 to induce apoptosis was investigated. First, apoptotic endothelial and tumor cells were analyzed by flow cytometry after staining with annexin V-FITC and PI. (Figure 6A). Treatment with C-VGB3 (0.40 μM) induced significant apoptosis in both cell lines compared to the controls. […] Apoptosis induction by C-VGB3 was further characterized by the TUNEL assay, as an indicator of late apoptosis, with a confocal microscope (Figure 6B).
Annexin V/Propidium Iodide flow cytometry was performed to investigate the C-VGB3 effect on apoptosis induction, as previously described, with some modifications. […]
(In general: In flow cytometry, cells or beads pass a laser one at a time.)

A further data set deals with 4T1 cells. The data set is described as follows: TUNEL assay, 4T1 cells. It is filed as cell-based, murine. Particulars: 0.40 μM, n = 3, p = 0.0002. The source says:
Periodic boundary conditions were used, and bonds were restrained by applying the LINCS algorithm to their equilibrium position. Initial structures were solvated with three-point model water molecules in a cubic box of 1.0 nm to fully cover the protein system in water, following periodic boundary conditions (PBC). The produced system for each peptide was neutralized through the “genion tool” plugin of the GROMACS package by adding ions Na+ and Cl−. Then, the system was minimized for 50000 iterations using the steepest descent (SD) algorithm and using velocity rescaling (modiﬁed Berendsen) temperature coupling and Parrinello-Rahman pressure coupling methods, simulated under an isothermal-isobaric ensemble (NPT) for 5 ns at a constant temperature, the pressure of 300 K, and 1 atm, respectively. The NVT and NPT equilibration was carried out for 50000 steps. The minimization and equilibration procedures were executed, and finally, one system of the peptide was subjected to a 200 ns production run of MD simulations utilizing 2 fs as the time step and coordinates of all atoms were recorded in the form of .trr GROMACS trajectory ﬁle every 10 ps.
2 × 10^3 HUVE or 4T1 cells were cultured in DMEM and RPMI-1640 media, respectively, supplemented with 10% (v/v) FBS overnight. Then, the cells were incubated in the media supplemented with 5% FBS, with PBS or C-VGB3 (0.40 μM). […]

The subject of the next data set is ectodomain of VEGFR1. As to conditions: ref [9], cited from earlier work. The procedure: Our previous study has shown that a peptide reproducing helix α1 of VEGFB can unexpectedly interfere with VEGF binding to VEGFR2 and, consequently, inhibit VEGF-stimulated angiogenesis and tumor growth. In the present study, we extend this observation using another peptide (C-VGB3) that mimics loop2 and its adjacent region of VEGFB. […] For instance, competitive binding of C-VGB3 (100 μM) with biotinyl ...

Regarding `CC(C)C[C@@H]1NC(=O)CNC(=O)[C@H](CC(=O)O)NC(=O)[C@H](CC(=O)O)NC(=O)[C@@H]2CCCN2C(=O)[C@@H]2CCCN2C(=O)[C@H](CCCNC(=N)N)NC(=O)[C@@H](NC(=O)[C@@H](N)CCC(=O)O)CSSC[C@@H](C(=O)O)NC1=O` [C-VGB3] (H-ECRPPDDGLC-OH; disulfide 2-10), the “toxicity at this dosage (weight gain)” value in data set [1] (three weeks) was “not toxic”. Besides, the “mice weight vs control groups” value in data set [1] (two-way ANOVA) is recorded as “no significant differences”. The “level of apoptotic cells” value with HUVECs is on record as 56.62. Besides, the TUNEL fluorescent labeling result with 4T1 cells is recorded as “fluorescent-labeled more than control cells”. In addition, the “displacement of btVEGF165” value with ectodomain of VEGFR1 (100 μM, ectodomain of VEGFR1) is listed as 63%. For the same compound, the “binding to VEGFR1” value with ectodomain of VEGFR1 is “bind and neutralize VEGFR1”.
